Measurements reported in the supplement of paper PMC8253809.

Legend:
Assay in all cases: area under dose-response curve of % growth inhibition (log2 RLU vs DMSO / staurosporine), 1e-11 to 1e-4 M (% x log10 M); higher = more growth inhibition
SUDIPGIV = tested on: SUDIPGIV (diffuse intrinsic pontine glioma line)
Outline: (§1)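 On 1% Geltrex-coated 384-well plates, patient-derived pHGG/DIPG cell lines and astrocytes were treated in triplicate across 10 threefold dilutions (mean top concentration 35 μM) for 7 days, with iAstro treated for 3 days, at 37 °C, 5% CO2. Log2-transformed CellTiter-Glo luminescence was normalised per plate to % activity between solvent and positive controls. Area under the curve was obtained by the trapezoid rule from a log-logistic fit, or from a smoothing spline when that fit failed.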

SUDIPGXIX = tested on: SUDIPGXIX (diffuse intrinsic pontine glioma line)
Outline: as §1

SUDIPGXIII = tested on: SUDIPGXIII (diffuse intrinsic pontine glioma line)
Outline: as §1

SUDIPGVI = tested on: SUDIPGVI (diffuse intrinsic pontine glioma line)
Outline: as §1

iAstro = tested on: iAstro (astrocyte control)
Outline: as §1

DIPGX29 = tested on: DIPGX29 (H3.3 K27M diffuse intrinsic pontine glioma line)
Outline: as §1

HGGX6 = tested on: HGGX6 (H3.3 G34R paediatric high-grade glioma line)
Outline: as §1

HGGX2 = tested on: HGGX2 (paediatric high-grade glioma line)
Outline: as §1

SUDIPGXXI = tested on: SUDIPGXXI (diffuse intrinsic pontine glioma line)
Outline: as §1

SUDIPGXVII = tested on: SUDIPGXVII (diffuse intrinsic pontine glioma line)
Outline: as §1

HGGX39 = tested on: HGGX39 (paediatric high-grade glioma line)
Outline: as §1

DIPGX9 = tested on: DIPGX9 (diffuse intrinsic pontine glioma line)
Outline: as §1

DIPGX7 = tested on: DIPGX7 (H3.3 K27M diffuse intrinsic pontine glioma line)
Outline: as §1

HGGX42 = tested on: HGGX42 (H3.3 G34R paediatric high-grade glioma line)
Outline: as §1

HABS = tested on: HABS (astrocyte control)
Outline: as §1

DIPGX37 = tested on: DIPGX37 (H3.3 K27M diffuse intrinsic pontine glioma line)
Outline: as §1

SMILES	area under dose-response curve (SUDIPGIV)	area under dose-response curve (SUDIPGXIX)	area under dose-response curve (SUDIPGXIII)	area under dose-response curve (SUDIPGVI)	area under dose-response curve (iAstro)	area under dose-response curve (DIPGX29)	area under dose-response curve (HGGX6)	area under dose-response curve (HGGX2)	area under dose-response curve (SUDIPGXXI)	area under dose-response curve (SUDIPGXVII)	area under dose-response curve (HGGX39)	area under dose-response curve (DIPGX9)	area under dose-response curve (DIPGX7)	area under dose-response curve (HGGX42)	area under dose-response curve (HABS)	area under dose-response curve (DIPGX37)
CO[C@H]1C(=O)[C@]2(C)[C@@H](OC)C[C@H]3OC[C@@]3(OC(C)=O)[C@H]2[C@H](OC(=O)c2ccccc2)[C@]2(O)C[C@H](OC(=O)[C@H](O)[C@@H](NC(=O)OC(C)(C)C)c3ccccc3)C(C)=C1C2(C)C [CABAZITAXEL]	255	120	29.9	37.8	79.4	71.3	78.2	156	515	50.5	123	141	68.4	102	147	119
CC(C)[C@H]1C(=O)N[C@@H](CCCNC(=N)N)C(=O)NCC(=O)N[C@@H](CC(=O)O)C(=O)N[C@H](Cc2ccccc2)C(=O)N1C [CILENGITIDE]	4.77	0	0	0	0	10.1	2.93	8.33	1.67	4.38	4.22	8.99	15.6	11.4	3.86	4.08
CC(C)(C)c1nc(-c2cccc(NS(=O)(=O)c3c(F)cccc3F)c2F)c(-c2ccnc(N)n2)s1 [DABRAFENIB]	18.7	0	0.214	2.65	3.65	3.8	21.9	0	13.7	3.63	25.7	3.09	20.8	7.39	19.7	11.5
CCN(c1cc(-c2ccc(CN3CCOCC3)cc2)cc(C(=O)NCc2c(C)cc(C)[nH]c2=O)c1C)C1CCOCC1 [EPZ-6438]	9.17	0.349	2.24	0	5.32	4.38	0	0	6.79	4.66	1.99	0	5.15	0	12.9	0
